Data set [1] addresses T1, Human matrilysin (Matr) (Homo sapiens, UniProt P09237).
T1 construct: the catalytic domain was liberated by treatment with 2 mM APMA at 37° C. for 2 hours; ubiquitin (cleaved yes); made in house; host or cells: E. coli
T1 sequence (P09237 95-267): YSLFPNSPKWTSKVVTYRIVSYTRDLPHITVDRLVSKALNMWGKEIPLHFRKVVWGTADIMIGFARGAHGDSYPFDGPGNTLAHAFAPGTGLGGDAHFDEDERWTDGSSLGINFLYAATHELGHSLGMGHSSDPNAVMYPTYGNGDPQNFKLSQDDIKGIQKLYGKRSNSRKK
The experiment in a line: Fluorometric MCA-peptide hydrolysis assay, matrilysin (Matr). It counts as biochemical. Particulars: apparent Ki; 10 μM MCA peptide substrate, 37° C., pH 7.5; read-out: Matr (Ki,app). The method in brief:
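Catalytic domain of E. coli-expressed human matrilysin assayed at 37° C, pH 7.5 Tricine buffer, 2% DMSO, with 10 μM MCA-Pro-Leu-Gly-Leu-DPA-Ala-Arg-NH2; fluorescence ex 328/em 393 nm over 60 min. Ki,app from steady-state rates fitted to competitive inhibition or Morrison tight-binding equation.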

A short description of data set [2]: Determination of inhibitor concentration in plasma after oral dosing. It counts as in vivo, Sprague Dawley rats. Particulars: Sprague-Dawley, rat plasma, dose 50 mg/kg, vehicle B (60% aq. propylene glycol).

This is an account of results in patent US6495699B2, “Metalloproteinase inhibitors, pharmaceutical compositions containing them, and their use” (Agouron Pharmaceuticals Inc., priority 1996, dated 2002).

On to `CNC(=O)[C@@H](NC(=O)[C@@H](CC(=O)O)n1ccc(-c2ccc(-c3ccc(C#N)cc3)cc2)c1)C(C)(C)C` [Example 5(c), 3(R)-[3-(4′-Cyanobiphenyl-4-yl)-1H-pyrrol-1-yl]-N-[2,2-dimethyl-1(S)-(methylcarbamoyl)propyl]succinamic Acid], for which the melting point (as a rule, the temperature, or range, at which the solid turns liquid) fell in the range of 142 to 144 °C. For the same compound, in data set [1], the Ki stood at 305 nM. Besides, in data set [2], the AUC – broadly, the area under the concentration-time curve, a measure of exposure – was 1220 ng·h/mL and the Cmax – broadly, the peak of the concentration-time curve – amounted to 410 ng/mL.
